Reference: patent US20150306154A1, “STRAINS AND METHODS USEFUL FOR MYCOTOXINS” (DuPont Nutrition Biosciences ApS, priority 2011, published 2015)
Where two headings read alike, the source gives them in different places.

What was measured:
nursery pigs = details: 3 ppm DON in diet, 7 days
IPEC-J2 cells = format: cell-based, porcine; details: relative to unstimulated IPEC-J2 cells

Compound	ADFI (nursery pigs; Non-Responders) [kg]	ADG (nursery pigs; Non-Responders) [kg]	G:F (nursery pigs; Non-Responders)	ADFI (nursery pigs; Responders) [kg]	ADG (nursery pigs; Responders) [kg]	G:F (nursery pigs; Responders)	IL-6 gene expression fold change (IPEC-J2 cells; DON 10 ng/mL) [fold]	IL-8 gene expression fold change (IPEC-J2 cells; DON 10 ng/mL) [fold]	TNF-α gene expression fold change (IPEC-J2 cells; LPS/DON)	IL-6 gene expression fold change (IPEC-J2 cells; LPS 10 ng/mL) [fold]	IL-8 gene expression fold change (IPEC-J2 cells; LPS 10 ng/mL) [fold]	TNF-α gene expression fold change (IPEC-J2 cells; LPS 10 ng/mL) [fold]
CC1=C[C@H]2O[C@@H]3[C@H](O)C[C@](C)([C@@]2(CO)[C@H](O)C1=O)[C@]31CO1 [DON, deoxynivalenol]	0.71	0.46	0.64	0.42	0.26	0.61	−0.86	0.56	about 5 fold	–	–	–
lipopolysaccharide [LPS]	–	–	–	–	–	–	–	–	–	0.29	0.88	0.16
